Experiments:
[1] = system: human microsomal proteins; assay: Stable isotope (GSH/GSX) trapping of reactive metabolites in microsomal incubation, LC-MS/MS neutral loss scanning of 129 Da; assay type: in vitro ADME; details: 10 μM test compound, 1 mg/mL human microsomal proteins, 1 mM GSH and GSX (1:1), NADPH generating system, 60 min, 37° C., pH 7.4
Procedure: All microsomal incubations described herein were performed at 37° C. in a water bath. […] Alternatively, the reaction mixtures were subjected to liquid-liquid extractions to recover the metabolites from supernatants.
MS analyses were performed on a Micromass (Manchester, UK) Quattro Micro triple quadrupole mass spectrometer.
For complete profiling of reactive metabolites, samples were first subjected to chromatographic separations with an Agilent 1100 HPLC system with an auto-sampler (Agilent Technologies, Palo Alto, Calif.), and eluents were introduced to the Quattro Micro triple quadrupole mass spectrometer operated in the neutral loss scanning mode. An Agilent Zorbax SB C18 column (2.1×50 mm) was used for the chromatographic separation. […] At 7 min, the column was flushed with 95% acetonitrile for 2 min before re-equilibration at initial conditions. […] Data were processed using the Masslynx version 4.0 software from Micromass.

[2] = system: human microsomal proteins; assay: Stable isotope (GSH/GSX) trapping of reactive metabolites in microsomal incubation, FIA-MS/MS neutral loss scanning of 129 Da; assay type: in vitro ADME; details: 10 μM test compound, 1 mg/mL human microsomal proteins, 1 mM GSH and GSX (1:1), 60 min, 37° C.; flow injection FIA-MS/MS, analysis within 30 sec
Procedure: All microsomal incubations described herein were performed at 37° C. in a water bath. The test compound (or drug candidate) was mixed with human microsomal proteins in 50 mM potassium phosphate buffer (pH 7.4) supplemented with GSH and GSX that were pre-mixed at an equal molar ratio of 1:1. Reaction mixtures were then warmed at 37° C. for 5 min. The reactions were initiated by the addition of a NADPH generating system to yield a final volume of 1000 μL. The final reaction mixtures contained 10 μM test compounds, 1 mg/mL microsomal proteins, 1 mM GSH and GSX, 1.3 mM NADP^+, 3.3 mM glucose-6-phosphate, 0.4 U/ml glucose-6-phosphate dehydrogenase, 3.3 mM magnesium chloride. After a 60 min incubation, the reactions were terminated by the addition of 150 μL of trichloroacetic acid (10%). The samples were centrifuged at 10,000 g for 15 min at 4° C. to pellet the precipitated protein, and the supernatants were subjected to solid-phase extractions. […]
For rapid screening of reactive metabolites (as described in Example 11), cleaned samples were directly injected to the mass spectrometer that was operated in the neutral scanning mode. […] After a glutathione conjugate was detected, CID MS/MS spectrum was subsequently acquired to determine the structure of the glutathione conjugate. […]

Compound	detection of reactive metabolites (characteristic isotopic doublet of GSH/GSX adducts in neutral loss mass spectrum) [1]	detection of reactive metabolite (characteristic isotopic doublet of GSH/GSX adducts in neutral loss mass spectrum) [2]
NC(=O)OCC(COC(N)=O)c1ccccc1 [Felbamate]	no reactive metabolites were formed	–
C[C@]12CC[C@@H]3c4ccc(O)c(O)c4CC[C@H]3[C@@H]1CCC2=O [4-Hydroxyestrone]	only one component at a retention time of 5.11 min displayed characteristic doublet	the reactive metabolite was detected
O=C(O)Cc1ccccc1Nc1c(Cl)cccc1Cl [Diclofenac]	two reactive metabolites were co-eluted	–

From patent US7445909B2, “Method for detecting reactive metabolites using a combination of glutathione and a stable isotopic derivative of glutathione and mass spectroscopy-based pattern recognition” (Janssen Phamaceutica N.V., priority 2004, dated 2008)
